Experimental findings from paper PMC9544403, “Schwarzinicine A inhibits transient receptor potential canonical channels and exhibits overt vasorelaxation effects” (Phytotherapy Research, 2022) are described below.

Format in all cases: cell-based
The target of assay [1] is T1, hTRPC5 (Homo sapiens, UniProt Q9UL62).
T1 construct: gene TRPC5
T1 sequence (Q9UL62 1-973): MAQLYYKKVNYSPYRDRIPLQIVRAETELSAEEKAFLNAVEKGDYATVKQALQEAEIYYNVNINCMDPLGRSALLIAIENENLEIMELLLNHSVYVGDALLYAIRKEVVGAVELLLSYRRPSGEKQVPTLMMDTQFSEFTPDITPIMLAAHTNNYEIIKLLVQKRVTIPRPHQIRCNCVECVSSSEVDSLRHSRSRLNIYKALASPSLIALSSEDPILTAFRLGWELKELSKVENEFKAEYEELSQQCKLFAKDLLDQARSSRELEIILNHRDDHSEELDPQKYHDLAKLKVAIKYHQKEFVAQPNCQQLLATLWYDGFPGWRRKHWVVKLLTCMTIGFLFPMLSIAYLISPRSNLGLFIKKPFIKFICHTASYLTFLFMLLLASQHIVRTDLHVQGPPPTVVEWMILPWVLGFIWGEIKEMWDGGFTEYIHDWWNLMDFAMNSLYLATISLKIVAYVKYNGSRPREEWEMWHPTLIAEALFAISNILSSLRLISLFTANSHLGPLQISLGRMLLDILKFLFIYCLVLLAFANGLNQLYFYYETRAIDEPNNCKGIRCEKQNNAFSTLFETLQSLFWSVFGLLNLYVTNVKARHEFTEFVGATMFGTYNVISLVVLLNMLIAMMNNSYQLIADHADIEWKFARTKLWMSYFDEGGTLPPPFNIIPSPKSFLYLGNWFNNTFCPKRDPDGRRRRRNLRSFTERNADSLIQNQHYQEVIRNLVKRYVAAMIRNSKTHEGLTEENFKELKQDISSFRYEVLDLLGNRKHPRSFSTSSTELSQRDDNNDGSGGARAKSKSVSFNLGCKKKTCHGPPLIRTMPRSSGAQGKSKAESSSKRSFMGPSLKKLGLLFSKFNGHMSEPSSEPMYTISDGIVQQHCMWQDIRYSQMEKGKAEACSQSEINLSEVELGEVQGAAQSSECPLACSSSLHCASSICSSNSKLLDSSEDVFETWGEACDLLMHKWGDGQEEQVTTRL
Kind of assay: fura-2 intracellular calcium assay, S1P-activated hTRPC5 overexpressed in HEK T-REx cells. The text has this:
fura-2 intracellular calcium assay, S1P-activated hTRPC5 overexpressed in HEK T-REx cells on hTRPC5 | S1P‐evoked calcium influx mediated by hTRPC4 and hTRPC5 were inhibited by schwarzinicine A

The target in assay [2] is T2, hTRPC6 (Homo sapiens, UniProt Q9Y210).
T2 construct: gene TRPC6
T2 sequence (Q9Y210 1-931): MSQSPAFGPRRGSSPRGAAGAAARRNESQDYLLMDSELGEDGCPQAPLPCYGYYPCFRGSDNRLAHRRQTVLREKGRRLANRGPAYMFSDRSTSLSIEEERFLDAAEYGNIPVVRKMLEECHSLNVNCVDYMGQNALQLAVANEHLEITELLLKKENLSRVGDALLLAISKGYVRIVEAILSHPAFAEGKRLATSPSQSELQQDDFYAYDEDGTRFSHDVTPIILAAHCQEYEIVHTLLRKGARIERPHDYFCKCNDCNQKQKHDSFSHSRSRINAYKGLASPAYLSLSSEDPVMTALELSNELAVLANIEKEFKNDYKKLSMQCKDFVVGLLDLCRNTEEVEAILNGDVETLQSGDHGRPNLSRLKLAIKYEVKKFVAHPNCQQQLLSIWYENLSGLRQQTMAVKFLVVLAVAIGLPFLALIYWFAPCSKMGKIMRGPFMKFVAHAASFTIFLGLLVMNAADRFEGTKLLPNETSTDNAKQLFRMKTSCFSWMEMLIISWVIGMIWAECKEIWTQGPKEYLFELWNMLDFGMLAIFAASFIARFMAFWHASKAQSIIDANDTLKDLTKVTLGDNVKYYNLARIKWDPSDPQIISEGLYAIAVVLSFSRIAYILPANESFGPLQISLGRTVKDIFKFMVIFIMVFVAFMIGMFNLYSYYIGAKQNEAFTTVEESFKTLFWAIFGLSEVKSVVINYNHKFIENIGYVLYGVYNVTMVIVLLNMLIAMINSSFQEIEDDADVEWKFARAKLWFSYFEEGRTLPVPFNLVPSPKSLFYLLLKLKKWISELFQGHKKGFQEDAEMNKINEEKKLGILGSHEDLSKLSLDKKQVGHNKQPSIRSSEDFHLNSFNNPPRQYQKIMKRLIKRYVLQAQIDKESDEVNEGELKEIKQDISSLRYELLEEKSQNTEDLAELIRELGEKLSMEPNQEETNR
Kind of assay: fura-2 intracellular calcium assay, OAG-activated hTRPC6 transfected in HEK […] cells.

Assay [3] deals with T3, hTRPC3 (Homo sapiens, UniProt Q13507).
T3 construct: gene TRPC3
T3 sequence (Q13507 1-921): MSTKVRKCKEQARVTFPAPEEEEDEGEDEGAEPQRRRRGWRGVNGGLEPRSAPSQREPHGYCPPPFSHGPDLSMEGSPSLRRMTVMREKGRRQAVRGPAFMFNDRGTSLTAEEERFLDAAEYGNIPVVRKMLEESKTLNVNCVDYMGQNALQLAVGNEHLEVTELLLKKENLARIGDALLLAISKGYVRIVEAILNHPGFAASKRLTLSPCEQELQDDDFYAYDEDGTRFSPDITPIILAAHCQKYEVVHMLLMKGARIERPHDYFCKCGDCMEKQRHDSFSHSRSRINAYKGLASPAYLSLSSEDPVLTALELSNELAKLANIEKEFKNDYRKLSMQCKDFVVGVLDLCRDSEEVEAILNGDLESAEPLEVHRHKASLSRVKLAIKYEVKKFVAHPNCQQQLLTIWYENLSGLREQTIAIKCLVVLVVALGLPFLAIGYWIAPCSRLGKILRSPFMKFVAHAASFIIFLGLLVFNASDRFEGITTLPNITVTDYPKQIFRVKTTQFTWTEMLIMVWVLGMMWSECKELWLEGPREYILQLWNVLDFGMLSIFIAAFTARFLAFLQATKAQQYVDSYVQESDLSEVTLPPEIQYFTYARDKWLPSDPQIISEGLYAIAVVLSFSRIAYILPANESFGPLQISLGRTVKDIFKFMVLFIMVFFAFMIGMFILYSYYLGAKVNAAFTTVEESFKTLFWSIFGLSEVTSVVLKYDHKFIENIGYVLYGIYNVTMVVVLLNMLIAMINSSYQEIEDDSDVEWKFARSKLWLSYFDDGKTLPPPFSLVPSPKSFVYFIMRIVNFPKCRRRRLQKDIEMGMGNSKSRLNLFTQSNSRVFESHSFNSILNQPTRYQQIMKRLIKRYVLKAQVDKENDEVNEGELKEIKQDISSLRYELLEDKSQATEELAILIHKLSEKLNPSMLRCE
Kind of assay: fura-2 intracellular calcium assay, OAG-activated hTRPC3 overexpressed in HEK T-REx cells.

Assay [4] addresses T4, hTRPC4 (Homo sapiens, UniProt Q9UBN4).
T4 construct: gene TRPC4
T4 sequence (Q9UBN4 1-977): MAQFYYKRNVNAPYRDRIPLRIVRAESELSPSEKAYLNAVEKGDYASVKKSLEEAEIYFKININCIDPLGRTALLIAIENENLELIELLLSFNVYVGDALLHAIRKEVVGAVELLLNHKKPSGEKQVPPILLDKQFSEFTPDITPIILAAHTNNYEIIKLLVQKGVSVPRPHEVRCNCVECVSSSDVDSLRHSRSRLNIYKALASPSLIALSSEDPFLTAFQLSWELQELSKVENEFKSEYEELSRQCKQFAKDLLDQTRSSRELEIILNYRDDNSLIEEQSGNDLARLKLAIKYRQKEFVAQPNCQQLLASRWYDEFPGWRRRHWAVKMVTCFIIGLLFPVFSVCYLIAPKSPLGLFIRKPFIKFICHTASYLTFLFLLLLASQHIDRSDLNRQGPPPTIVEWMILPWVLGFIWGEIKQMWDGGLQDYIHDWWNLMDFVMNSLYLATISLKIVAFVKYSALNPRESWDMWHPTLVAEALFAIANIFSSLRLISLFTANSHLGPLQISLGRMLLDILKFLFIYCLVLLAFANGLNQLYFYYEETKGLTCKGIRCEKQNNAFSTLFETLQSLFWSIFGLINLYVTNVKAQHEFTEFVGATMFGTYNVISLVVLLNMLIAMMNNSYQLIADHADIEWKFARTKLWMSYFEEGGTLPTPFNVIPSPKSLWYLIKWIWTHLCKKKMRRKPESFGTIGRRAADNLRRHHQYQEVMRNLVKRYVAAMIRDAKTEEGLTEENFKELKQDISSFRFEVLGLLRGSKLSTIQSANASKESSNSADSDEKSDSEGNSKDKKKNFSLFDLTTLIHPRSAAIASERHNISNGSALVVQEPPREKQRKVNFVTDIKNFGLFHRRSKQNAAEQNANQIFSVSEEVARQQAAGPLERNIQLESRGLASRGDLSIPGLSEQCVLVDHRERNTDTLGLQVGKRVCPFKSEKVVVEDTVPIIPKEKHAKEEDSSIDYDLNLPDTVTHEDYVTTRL
Kind of assay: fura-2 intracellular calcium assay, S1P-activated hTRPC4 overexpressed in HEK T-REx cells.

Take `COc1ccc(CCNC(CCc2ccc(OC)c(OC)c2)Cc2ccc(OC)c(OC)c2)cc1OC` (racemic) [schwarzinicine A, N‐(3,4‐dimethoxyphenethyl)‐1,4‐bis(3,4‐dimethoxyphenyl)butan‐2‐amine]: the half-maximal inhibitory concentration (IC50) in assay [1] amounted to 19 µM; in assay [2] it was 7 µM; in assay [3], 3 µM; in assay [4], 17 µM.
